Measured values from patent publication US11397186B2, “Methods for covalently binding a cell surface protein and a ligand” (UNIVERSITEIT GENT, priority 2016, dated 2022).
Non-standard residues stand in square brackets, D forms with d. Residues, ends and D or L forms follow the SMILES beside them. Ala(2-furyl) = N[C@@H](Cc1ccco1)C(=O)O

Target: T1, μ-opioid receptor (MOR) (Homo sapiens, UniProt P35372)
T1 construct: expressed in transfected cells; host or cells: CHO-hOR cells (CHO cells expressing the human opioid receptor)
Test: Opioid receptor radio-ligand binding assay (CHO-hOR cells)
Conditions: based on Table 1
Method: Next, the synthesised peptides were subjected to biological activity testing, to know whether they still bind to the opioid receptor. If so, it is tested to which opioid receptor subtype they bind. It is also investigated whether the opioid peptides behave as agonist or antagonist. The following assays are performed: radio-ligand binding assay, ^35S GTP binding assay, and tissue experiments, including guinea pig ileum (GPI) and mouse vas deferens (MVD) tests.

T1 sequence (P35372 whole entry): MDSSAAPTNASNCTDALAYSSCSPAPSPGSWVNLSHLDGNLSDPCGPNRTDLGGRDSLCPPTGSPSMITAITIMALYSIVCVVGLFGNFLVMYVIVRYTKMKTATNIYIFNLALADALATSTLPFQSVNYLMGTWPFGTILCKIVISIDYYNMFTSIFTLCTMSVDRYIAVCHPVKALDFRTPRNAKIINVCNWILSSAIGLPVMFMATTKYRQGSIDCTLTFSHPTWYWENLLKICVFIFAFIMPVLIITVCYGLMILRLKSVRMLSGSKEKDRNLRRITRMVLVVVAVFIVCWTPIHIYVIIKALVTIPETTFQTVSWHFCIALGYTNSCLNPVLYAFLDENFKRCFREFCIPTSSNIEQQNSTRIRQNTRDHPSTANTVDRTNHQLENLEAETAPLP

N=C(N)NCCC[C@@H](NC(=O)[C@@H](N)Cc1ccc(O)cc1)C(=O)N[C@@H](Cc1ccco1)C(=O)N[C@@H](Cc1ccccc1)C(N)=O [FUA3] (H-Y[dR][Ala(2-furyl)]F-NH2; N-terminus and C-terminus assumed)
binding to the opioid receptor, assessment in words: acceptable
